Test results: ChEMBL document CHEMBL1201862, “PubChem BioAssay data set” (2004)
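These data come from cells grown in 96-well plates and exposed to compound for 48 hours at five concentrations. Here, GI50 denotes the concentration required for 50% inhibition of growth.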 The source made the active and inactive calls. No stated cut-off is given here; in the data, active = GI50 up to about 1.1 µM and inactive = higher.

Tests used:
Experiment in all cases: NCI-60 cell line screen, 48 h
[1] = test system: COLO 205
[2] = test system: MCF7
[3] = test system: UACC-62
[4] = test system: DLD-1
[5] = test system: OVCAR-8
[6] = test system: SN12C
[7] = test system: NCI/ADR-RES
[8] = test system: SW-620
[9] = test system: RXF 393
[10] = test system: UO-31
[11] = test system: KM-20L2

Measured: GI50

Nc1nc(=O)c2c([nH]1)NCC(CNc1ccc(C(=O)N[C@@H](CCC(=O)O)C(=O)O)cc1)N2C=O (stereo partly specified) [LEUCOVORIN CALCIUM]
inactive: [1] > 125 µM | [2] > 125 µM | [3] > 125 µM | [4] > 125 µM | [5] 121 µM | [6] 14.8 µM | [7] > 125 µM | [8] > 125 µM | [9] > 125 µM | [10] > 125 µM | [11] > 125 µM
